From patent US20230278972A1, “SUBSTITUTED HALOALKYL SULFONANILIDE HERBICIDES” (FMC Corporation, priority 2020, published 2023)
Where two headings read alike, the source gives them in different places.

Legend:
[1] = system: barnyardgrass (Echinochloa crus-galli); experiment: Test A preemergence, barnyardgrass; type: in vivo; details: Echinochloa crus-galli, pre-emergence, 240 h, Preemergence; for pest or weed control at 125 g/ha: 125 g ai/ha; for pest or weed control at 500 g/ha: 500 g ai/ha
Method in brief: (§1)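 Formulated with a surfactant in a non-phytotoxic solvent, compounds are applied to loam–sand pots, either to bare soil immediately after seeding (preemergence) or to seedlings of 2 to 10 cm bearing one to two leaves (postemergence).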

[2] = system: barnyardgrass (Echinochloa crus-galli); experiment: Test B flooded paddy test, barnyardgrass; details: 336 h, read-out: Plant response rating, Barnyardgrass
[3] = system: Foxtail, Giant (giant foxtail, Setaria faberi); experiment: Test A preemergence, Foxtail, Giant; type: in vivo; details: Setaria faberi, pre-emergence, 240 h, Preemergence; for pest or weed control at 125 g/ha: 125 g ai/ha; for pest or weed control at 500 g/ha: 500 g ai/ha
Method in brief: as §1

[4] = system: pigweed (Amaranthus retroflexus); experiment: Test A postemergence, pigweed; type: in vivo; details: Amaranthus retroflexus, post-emergence, 240 h, Postemergence, 0 to 100 scale (0 no effect, 100 complete control); for pest or weed control at 125 g/ha: 125 g ai/ha; for pest or weed control at 500 g/ha: 500 g ai/ha
Method in brief: as §1

[5] = system: Ryegrass, Italian (Italian ryegrass, Lolium multiflorum); experiment: Test A preemergence, Ryegrass, Italian; type: in vivo; details: Lolium multiflorum, pre-emergence, 240 h, Preemergence; for pest or weed control at 125 g/ha: 125 g ai/ha; for pest or weed control at 500 g/ha: 500 g ai/ha
Method in brief: as §1

[6] = visual injury on 0 to 100 scale (0 no effect, 100 complete control), approximately 10 days, read-out: Barnyardgrass plant response rating
[7] = 0 to 100 scale (0 no effect, 100 complete control), read-out: Plant response rating, Barnyardgrass
[8] = visual injury on 0 to 100 scale (0 no effect, 100 complete control), approximately 10 days, read-out: Foxtail, Giant plant response rating
[9] = 0 to 100 scale (0 no effect, 100 complete control), read-out: Plant response rating, Foxtail, Giant
[10] = visual injury approx. 10 days, read-out: Plant response rating, Pigweed
[11] = visual injury, approx. 10 days, read-out: Plant response rating, Pigweed
[12] = visual injury on 0 to 100 scale (0 no effect, 100 complete control), approximately 10 days, read-out: Ryegrass, Italian plant response rating
[13] = 0 to 100 scale (0 no effect, 100 complete control), read-out: Plant response rating, Ryegrass, Italian
[14] = visual injury vs untreated controls after approx. 10 days, read-out: Pigweed plant response rating
[15] = visual injury, 0 to 100 scale (0 no effect, 100 complete control), approx. 10 days, read-out: Plant response rating, Barnyardgrass
[16] = visual injury, 0 to 100 scale (0 no effect, 100 complete control), approx. 10 days, read-out: Plant response rating, Foxtail, Giant
[17] = read-out: Plant response rating, Pigweed
[18] = visual injury, 0 to 100 scale (0 no effect, 100 complete control), approx. 10 days, read-out: Plant response rating, Ryegrass, Italian

| Structure (SMILES) | pest or weed control at 125 g/ha [1, 6] [%] | pest or weed control at 500 g/ha [1, 7] [%] | pest or weed control at 250 g/ha [2] [%] | pest or weed control at 125 g/ha [3, 8] [%] | pest or weed control at 500 g/ha [3, 9] [%] | pest or weed control at 125 g/ha [4, 10] [%] | pest or weed control at 500 g/ha [4, 11] [%] | pest or weed control at 125 g/ha [5, 12] [%] | pest or weed control at 500 g/ha [5, 13] [%] | pest or weed control at 500 g/ha [4, 14] [%] | pest or weed control at 125 g/ha [1, 15] [%] | pest or weed control at 500 g/ha [1, 6] [%] | pest or weed control at 125 g/ha [3, 16] [%] | pest or weed control at 500 g/ha [3, 8] [%] | pest or weed control at 125 g/ha [4, 17] [%] | pest or weed control at 500 g/ha [4, 10] [%] | pest or weed control at 125 g/ha [5, 18] [%] | pest or weed control at 500 g/ha [5, 12] [%] |
| --- | --- | --- | --- | --- | --- | --- | --- | --- | --- | --- | --- | --- | --- | --- | --- | --- | --- | --- |
| CCc1cc(-c2cc(NS(=O)(=O)C(F)(F)F)c(C)cc2C)c(=O)n(C)n1 [Compound 34, N-[5-(6-Ethyl-2,3-dihydro-2-methyl-3-oxo-4-pyridazinyl)-2,4-dimethylphenyl]-1,1,1-trifluoromethanesulfonamide] | 0 | 0 | 0 | 0 | 30 | 0 | 0 | 30 | 70 |  |  |  |  |  |  |  |  |  |
| Cc1cc(C)c(C2=NOC3CCOCC23)cc1NS(=O)(=O)C(F)(F)F (stereo not drawn) [Compound 120, N-[2,4-Dimethyl-5-(3a,6,7,7a-tetrahydro-4H-pyrano[3,4-d]isoxazol-3-yl)phenyl]-1,1,1-trifluoromethanesulfonamide] | 90 | 100 | 0 | 100 | 100 | 60 |  | 100 | 100 | 90 |  |  |  |  |  |  |  |  |
| Cc1cc(C)c(C(=O)N2CCC(F)(F)CC2)cc1NS(=O)(=O)C(F)(F)F [Compound 241, N-[5-[(4,4-Difluoro-1-piperidinyl)carbonyl]-2,4-dimethylphenyl]-1,1,1-trifluoromethanesulfonamide] |  |  | 25 |  |  |  |  |  |  |  | 100 | 100 | 80 | 100 | 60 | 80 | 70 | 100 |
| Cc1cc(Cl)c(NS(=O)(=O)C(F)(F)F)cc1C(=O)N1CCCCC1 [Compound 18, N-[2-Chloro-4-methyl-5-(1-piperidinylcarbonyl)phenyl]-1,1,1-trifluoromethanesulfonamide] | 100 | 100 | 0 | 100 | 100 | 40 | 90 | 90 | 90 |  |  |  |  |  |  |  |  |  |
| Cc1cc(Cl)c(NS(=O)(=O)C(F)(F)F)cc1C(=O)N1CCC(F)(F)CC1 [Compound 229, N-[2-Chloro-5-[(4,4-difluoro-1-piperidinyl)carbonyl]-4-methylphenyl]-1,1,1-trifluoromethanesulfonamide] |  | 90 | 10 |  |  |  |  |  |  | 100 | 70 |  | 60 | 100 | 80 |  | 60 | 90 |
| Cc1cc(C)c(N(COC(=O)C(C)(C)C)S(=O)(=O)C(F)(F)F)cc1C1=NO[C@@H]2CCC[C@H]12 [Compound 100, [[2,4-Dimethyl-5-[(3aR,6aR)-3a,5,6,6a-tetrahydro-4H-cyclopent[d]isoxazol-3-yl]phenyl][(trifluoromethyl)sulfonyl]amino]methyl 2,2-dimethylpropanoate] | 70 | 90 | 90 | 40 | 90 | 60 |  | 40 | 70 | 90 |  |  |  |  |  |  |  |  |
| Cc1cc(Cl)c(NS(=O)(=O)C(F)(F)F)cc1C(=O)N1CCOCC1 [Compound 16, N-[2-Chloro-4-methyl-5-(4-morpholinylcarbonyl)phenyl]-1,1,1-trifluoromethanesulfonamide] | 90 | 100 | 25 | 30 | 100 | 70 | 90 | 90 | 100 |  |  |  |  |  |  |  |  |  |
| Cc1cc(C)c(C2=NOC3(CCCC3)C2)cc1NS(=O)(=O)C(F)(F)F [Compound 207, N-[2,4-Dimethyl-5-(1-oxa-2-azaspiro[4.4]non-2-en-3-yl)phenyl]-1,1,1-trifluoromethanesulfonamide] |  | 90 | 75 |  | 100 |  |  |  | 100 | 70 | 90 |  | 90 |  | 50 |  | 90 |  |
| Cc1cc(C)c(C2=NO[C@@H]3CCC[C@H]23)cc1NS(=O)(=O)C(F)(F)F [Compound 103, N-[2,4-Dimethyl-5-[(3aR,6aR)-3a,5,6,6a-tetrahydro-4H-cyclopent[d]isoxazol-3-yl]phenyl]-1,1,1-trifluoromethanesulfonamide] | 90 | 90 | 85 | 90 | 100 | 80 |  | 90 | 90 | 80 |  |  |  |  |  |  |  |  |
| Cc1cc(C)c(C2=NOC3COCCC23)cc1NS(=O)(=O)C(F)(F)F (stereo not drawn) [Compound 121, N-[2,4-Dimethyl-5-(3a,4,7,7a-tetrahydro-5H-pyrano[4,3-d]isoxazol-3-yl)phenyl]-1,1,1-trifluoromethanesulfonamide] | 90 | 90 | 40 | 100 | 100 | 70 |  | 100 | 100 | 90 |  |  |  |  |  |  |  |  |
| Cc1cc(C)c(C2=NOC3(CCCCC3)C2)cc1NS(=O)(=O)C(F)(F)F [Compound 197, N-[2,4-Dimethyl-5-(1-oxa-2-azaspiro[4.5]dec-2-en-3-yl)phenyl]-1,1,1-trifluoromethanesulfonamide] |  | 100 | 95 |  | 100 |  |  |  | 100 | 90 | 90 |  | 100 |  | 60 |  | 100 |  |
| Cc1c(NS(=O)(=O)C(F)(F)F)cc(C(=O)N(C)C)c(C)c1F [Compound 128, 3-Fluoro-N,N,2,4-tetramethyl-5-[[(trifluoromethyl)sulfonyl]amino]benzamide] | 100 | 100 | 30 | 50 | 100 | 60 |  | 100 | 100 | 90 |  |  |  |  |  |  |  |  |
| Cc1c(NS(=O)(=O)C(F)(F)F)cc(C(=O)N2CCOCC2)c(C)c1F [Compound 190, 1,1,1-Trifluoro-N-[3-fluoro-2,4-dimethyl-5-(4-morpholinylcarbonyl)phenyl]methanesulfonamide] |  | 100 | 0 |  | 100 |  |  |  | 100 | 100 | 90 |  | 90 |  | 70 |  | 70 |  |
| Cc1cc(C)c(N(COC(=O)C(C)(C)C)S(=O)(=O)C(F)(F)F)cc1C1=NOC2(CCCCC2)C1 [Compound 159, [[2,4-Dimethyl-5-(1-oxa-2-azaspiro[4.5]dec-2-en-3-yl)phenyl][(trifluoromethyl)sulfonyl]amino]methyl 2,2-dimethylpropanoate] | 40 | 60 | 65 | 30 | 70 |  |  | 0 | 30 | 70 |  |  |  |  | 40 |  |  |  |
